The test system of series [1] is rats in which trigeminal neuralgia was induced by the trigeminal nerve root compression. The series is described as follows: Air-puff test of mechanical allodynia in rats with trigeminal neuralgia induced by trigeminal nerve root compression. It is filed as in vivo, rats (Sprague-Dawley). The note with it: rat; for analgesic effect on mechanical allodynia induced by trigeminal nerve root compression: FIG. 2. The protocol: (§1) Mature male rats (Sprague-Dawley, 200-230 g) were used. The experimental animals were maintained under conditions of light-and-darkness cycle of 12 hours, a temperature of 22 to 25° C., a relative humidity of 40 to 60%, and free access to water and food.
Rats were anesthetized with a mixed solution of ketamine (40 mg/kg) and xylazine (4 mg/kg), fixed on a stereotaxic instrument, and 4% agar solution was injected into the left trigeminal nerve roots using a stainless steel injection tube to compress the trigeminal nerve roots. 10 μl of 4% agar solution was slowly injected over the trigeminal nerve roots for 5 seconds, and the injection tube was removed after 5 minutes and then sutured (Jeon H J. et. al., A novel trigeminal neuropathic pain model: compression of the trigeminal nerve root produces prolonged nociception in rats, Prog Neuropsychopharmacol Biol Psychiatry. 2012).
(§2) To observe the behavioral response, the animals were placed in a cage and adapted for 20 minutes in a quiet area, followed by an air-puff test to assess mechanical allodynia to air stimulation. Aggressive behaviors such as head movement to avoid air stimulation or biting in response to the air stimulation applied to the facial region which is dominated by the trigeminal nerve were used as evaluation criteria for the behavioral reflex. A total of 10 trials and 50% or more responses were considered as the threshold of stimulation.
On the 7th day after surgery, the test compound (10, 30 and 50 mg/kg) and carbamazepine (25 and 50 mg/kg) were intraperitoneally administered to the test animals in which allodynia had been induced. At 30 minutes, 60 minutes, 90 minutes, 2 hours, 3 hours, 4 hours and 6 hours after administration, the pharmacological effects of the drugs were evaluated by observing changes in the behavioral responses.
(§3) The effect of the compounds was expressed as mean±standard error, and statistical significance was recognized when data were p<0.05 difference using one-way ANOVA and Dunnett's test.

Series [2] has as its system rats in which facial pain was induced by inferior alveolar nerve injury. As to the kind of experiment: Air-puff test of mechanical allodynia in rats with facial pain induced by inferior alveolar nerve injury. It is filed as in vivo, rats (Sprague-Dawley). The note with it: rat; for analgesic effect on mechanical allodynia induced by inferior alveolar nerve injury: FIG. 4. On the procedure: as §1, §2
On the 7th day after surgery, the test compound (5, 10 and 20 mg/kg) and carbamazepine (25 and 50 mg/kg) were intraperitoneally administered to the test animals in which allodynia had been induced. At 30 minutes, 60 minutes, 90 minutes, 2 hours, 3 hours, 4 hours and 6 hours after administration, the pharmacological effects of the drugs were evaluated by observing changes in the behavioral responses.
as §3

For series [3] the following is noted: patients treated for trigeminal neuralgia; cited from earlier work.
Series [4] deals with formalin-induced pain behavioral response in rats. As to the kind of experiment: Formalin-induced facial pain behavioral response in rats. It is filed as in vivo, rats (Sprague-Dawley). The note with it: 5 and 20 mg/kg intraperitoneal 30 minutes before 5% formalin, rat, FIG. 5. On the procedure: as §1
5% Formalin (50 μl) was injected subcutaneously into the vibrissa pad on the left facial area of the rats using an insulin syringe (31 gauge). The behavioral response of rubbing or scratching the maxillofacial area was observed from 10 minutes after injection, accumulating in a unit of 5 minutes, for a total of 35 minutes (Park M K. et. al., Peripheral administration of NR2 antagonists attenuates orofacial formalin-induced nociceptive behavior in rats, Prog Neuropsychopharmacol Biol Psychiatry, 2011).
The vehicle, the test compound (5 and 20 mg/kg) and carbamazepine (25 mg/kg) were intraperitoneally administered, and after 30 minutes 5% formalin was injected into the left facial area.
as §3

[5] abbreviates: 30 and 50 mg/kg intraperitoneal.
Where [6] appears, read: overall conclusion, intraperitoneal.

SMILES strings stand for the structures.

In the case of `NC(=O)N1c2ccccc2C=Cc2ccccc21` [carbamazepine, reference compound], the entries for the “analgesic effect on mechanical allodynia induced by trigeminal nerve root compression” value in series [1] (25 mg/kg intraperitoneal) and in series [1] (50 mg/kg intraperitoneal) were “no analgesic effect” and “transient low analgesic effect”, respectively. In addition, the “analgesic effect on mechanical allodynia induced by inferior alveolar nerve injury” value in series [2] (25 mg/kg intraperitoneal) is listed as “no analgesic effect”; in series [2] (50 mg/kg intraperitoneal) it was “significant analgesic effect”. In addition, in series [2] (50 mg/kg intraperitoneal), the “time after administration at which the analgesic effect completely disappeared” value is 2 h. In addition, the “patients with side effects drowsiness, ataxia, nausea and anorexia” value in series [3] is on record as “about 40%”.

For `NC(=O)O[C@@H](Cn1ncnn1)c1ccccc1Cl` [test compound], in series [4], the “pain behavioral response as compared with the vehicle-administered group” value was “statistically significant decrease”. Moreover, in series [1] (30 and 50 mg/kg intraperitoneal, 7th day after surgery, FIG. 1), the “inhibition of mechanical allodynia induced by trigeminal nerve root compression” value was “significantly inhibited”. In series [1] (setting [5]), the “time after administration for which analgesic effect was maintained” value came out at 6 h and the “time after administration from which analgesic effect could be observed” value was found to be 60 min. Further, in series [1] (setting [6]), the “analgesic action in the trigeminal neuralgia animal model compared with carbamazepine” value is recorded as “better analgesic action than carbamazepine”. In addition, in series [2] (20 mg/kg intraperitoneal), the “time after administration from which significant pain-relieving effect was observed” value amounted to 90 min and the “time for which pain-relieving effect was maintained” value was 4 h. The “inhibition of mechanical allodynia induced by inferior alveolar nerve injury” value in series [2] (5, 10 and 20 mg/kg intraperitoneal, 7th day after surgery, FIG. 3) is given as “significantly inhibited”. In series [2] (5 and 10 mg/kg intraperitoneal), the “time after administration from which the effect was significant” value came to 90 min and the “time after administration up to which the effect was significant” value turned out to be 2 h. Besides, the “analgesic action in the inferior alveolar nerve injury-induced facial pain model compared with carbamazepine” value in series [2] (setting [6]) is given as “equivalent to or greater than carbamazepine”.

The record behind these values is patent publication US12611395B2, “Use of carbamate compound for preventing or treating trigeminal neuralgia” (SK BIOPHARMACEUTICALS CO., LTD., priority 2016, dated 2026).
